Experimental data published in patent US8367718B2, “Epigallocatechin gallate trimer and α-glucosidase inhibitor containing epigallocatechin gallate polymer” (Suntory Holdings Limited, priority 2008, dated 2013).
Entries after “also recorded” stand apart in the source; their conditions may differ.

What was measured:
maltase = settings: background art, literature values; read-out: maltase inhibitory activity IC50; cited from earlier work
α-glucosidase = experiment: Alpha-glucosidase inhibitory activity of EGCG polymers (p-nitrophenyl-α-D-glucopyranoside substrate, A405 nm); type: biochemical; settings: for α-glucosidase inhibitory activity (in words): qualitative statement; for inhibitory activity relative to the EGCG monomer: α-glucosidase, compared with EGCG monomer
Method: A […] sodium phosphate buffer solution was prepared by blending 0.1 M NaH2PO4.2H2O and 0.1M Na2HPO4.12H2O and the pH was adjusted to 7.0. To this, 2 g/L bovine serum albumin (F-V, manufactured by Nacalai Tesque Inc., pH 5.2, purity 96%) and 0.2 g/L NaN3 (manufactured by Nacalai Tesque Inc., special grade reagent) were added. An enzyme solution was prepared by dissolving α-glucosidase (manufactured by Wako Pure Chemical Industries Ltd., derived from yeast, 100 units/mg) in the above buffer solution so as to obtain 0.5 units/mg protein /ml (100 μg/20 ml). A substrate solution was prepared by dissolving p-nitrophenyl-α-D-glucopyranoside (manufactured by Nacalai Tesque Inc., special grade reagent) in the buffer solution so as to obtain 5 mM (7.525 mg/5 ml).
Of the samples used for evaluation, theasinensin (TSN)-A and TSN-D were synthesized in accordance with the paper (Hashimoto, F. Nonaka, G. Nishioka, I. Chem. Pharm. Bull. 36 (5), 1676-1684 (1988)) and oolongtheanin-gallate (hereinafter referred to as “OTNG”) were synthesized in accordance with the method described in the paper of J. Agric. Food Chem. 53, 4593-4598 (2005).
These samples were prepared so as to satisfy 10 mg/ml DMSO and serially diluted 6 times by doubling dilution. Using a 96-well microplate, enzyme solution (45 μL) was added to a sample solution (10 μL) and pre-incubated at 37° C. for 5 minutes. Thereafter, the substrate solution (45 μL) was added and absorbance was measured at A 405 nm. After incubation was performed at 37° C. for 5 minutes, absorbance was measured at A 405 nm. The inhibition rate was calculated as a difference from the absorbance at A405 nm of a control, which contains DMSO alone in place of a sample. Each activity measurement was performed twice.

## 3-sophoroside-5-glucoside of peonidin
maltase
  IC50: 200 µM

## O=C(O[C@@H]1Cc2c(O)cc(O)cc2O[C@@H]1c1cc(O)c(O)c(O)c1-c1c([C@H]2Oc3cc(O)cc(O)c3C[C@H]2OC(=O)c2cc(O)c(O)c(O)c2)cc(O)c(O)c1O)c1cc(O)c(O)c(O)c1 (single isomer, unassigned) [TSN-A, theasinensin A]
maltase
  IC50: 142 µM

## O=C(O[C@@H]1Cc2c(O)cc(O)cc2O[C@@H]1c1cc(O)c(O)c(O)c1-c1c([C@H]2Oc3cc(O)cc(O)c3C[C@H]2OC(=O)c2cc(O)c(O)c(O)c2)cc(O)c(O)c1O)c1cc(O)c(O)c(O)c1 (single isomer, unassigned) [TSN-D, theasinensin-D]
α-glucosidase
  α-glucosidase inhibitory activity (in words): strong α-glucosidase inhibitory activity

## O=C(O[C@@H]1Cc2c(cc(O)c(Cc3c(O)cc(O)c4c3O[C@H](c3cc(O)c(O)c(O)c3)[C@H](OC(=O)c3cc(O)c(O)c(O)c3)C4)c2O)O[C@@H]1c1cc(O)c(O)c(O)c1)c1cc(O)c(O)c(O)c1 [OHBF-B, oolong homobisflavan-B]
α-glucosidase
  α-glucosidase inhibitory activity (in words): strong α-glucosidase inhibitory activity

## O=C(OC1Cc2c(O)cc(O)c(Cc3c(O)c(Cc4c(O)c(Cc5c(O)cc(O)c6c5OC(c5cc(O)c(O)c(O)c5)C(OC(=O)c5cc(O)c(O)c(O)c5)C6)c5c(c4O)CC(OC(=O)c4cc(O)c(O)c(O)c4)C(c4cc(O)c(O)c(O)c4)O5)c4c(c3O)CC(OC(=O)c3cc(O)c(O)c(O)c3)C(c3cc(O)c(O)c(O)c3)O4)c2OC1c1cc(O)c(O)c(O)c1)c1cc(O)c(O)c(O)c1 [OHBF-tetramer-1, (2R,3R)-8-(H2R,3R)-8-(((2R,3R)-8-(((2R,3R)-5,7-dihydroxy-3-(3,4,5-trihydroxybenzoyloxy)-2-(3,4,5-trihydroxyphenyl)chroman-8-yl)methyl)-5,7-dihydroxy-3-(3,4,5-trihydroxybenzoyloxy)-2-(3,4,5-trihydroxyphenyl)chroman-6-yl)methyl)-5,7-dihydroxy-3-(3,4,5-trihydroxybenzoyloxy)-2-(3,4,5-trihydroxyphenyl)chroman-6-yl)methyl)-5,7-dihydroxy-2-(3,4,5-trihydroxyphenyl)chroman-3-yl 3,4,5-trihydroxybenzoate]
α-glucosidase; listed as Oolong homobisflavan-tetramer-1
  α-glucosidase inhibitory activity (in words): particularly strong activities
α-glucosidase; listed as oolong homobisflavan-tetramer-1
  α-glucosidase inhibitory activity (in words): significant inhibitory activity; also recorded: high activity
α-glucosidase
  inhibitory activity relative to the EGCG monomer: 10 times

## O=C(OC1Cc2c(O)cc(O)c(Cc3c(O)c(Cc4c(O)c(Cc5c(O)cc(O)c6c5OC(c5cc(O)c(O)c(O)c5)C(OC(=O)c5cc(O)c(O)c(O)c5)C6)c(O)c5c4OC(c4cc(O)c(O)c(O)c4)C(OC(=O)c4cc(O)c(O)c(O)c4)C5)c4c(c3O)CC(OC(=O)c3cc(O)c(O)c(O)c3)C(c3cc(O)c(O)c(O)c3)O4)c2OC1c1cc(O)c(O)c(O)c1)c1cc(O)c(O)c(O)c1 [OHBF-tetramer-2, (2R,2′R,3R,3′R)-8,8′-(2R,2′R,3R,3′R)-8,8′-methylenebis(5,7-dihydroxy-3-(3,4,5-trihydroxybenzoyloxy)-2-(3,4,5-trihydroxyphenyl)chroman-8,6-diyl)bis(methylene)bis(5,7-dihydroxy-2-(3,4,5-trihydroxyphenyl)chroman-8,3-diyl) bis(3,4,5-trihydroxybenzoate)]
α-glucosidase
  α-glucosidase inhibitory activity (in words): significant inhibitory activity

## O=C(O[C@@H]1Cc2c(cc(O)c(Cc3c(O)c(Cc4c(O)cc(O)c5c4O[C@H](c4cc(O)c(O)c(O)c4)[C@H](OC(=O)c4cc(O)c(O)c(O)c4)C5)c(O)c4c3O[C@H](c3cc(O)c(O)c(O)c3)[C@H](OC(=O)c3cc(O)c(O)c(O)c3)C4)c2O)O[C@@H]1c1cc(O)c(O)c(O)c1)c1cc(O)c(O)c(O)c1 [OHBF-trimer-2, (2R,3R)-8-(((2R,3R)-8-(((2R,3R)-5,7-dihydroxy-3-(3,4,5-trihydroxybenzoyloxy)-2-(3,4,5-trihydroxyphenyl)chroman-6-yl)methyl)-5,7-dihydroxy-3-(3,4,5-trihydroxybenzoyloxy)-2-(3,4,5-trihydroxyphenyl)chroman-6-yl)methyl)-5,7-dihydroxy-2-(3,4,5-trihydroxyphenyl)chroman-3-yl 3,4,5-trihydroxybenzoate]
α-glucosidase
  α-glucosidase inhibitory activity (in words): significant inhibitory activity

## O=C(O[C@@H]1Cc2c(cc(O)c(Cc3c(O)c(Cc4c(O)cc(O)c5c4O[C@H](c4cc(O)c(O)c(O)c4)[C@H](OC(=O)c4cc(O)c(O)c(O)c4)C5)c4c(c3O)C[C@@H](OC(=O)c3cc(O)c(O)c(O)c3)[C@@H](c3cc(O)c(O)c(O)c3)O4)c2O)O[C@@H]1c1cc(O)c(O)c(O)c1)c1cc(O)c(O)c(O)c1 [OHBF-trimer-4, (2R,3R)-8-(((2R,3R)-6-(((2R,3R)-5,7-dihydroxy-3-(3,4,5-trihydroxybenzoyloxy)-2-(3,4,5-trihydroxyphenyl)chroman-6-yl)methyl)-5,7-dihydroxy-3-(3,4,5-trihydroxybenzoyloxy)-2-(3,4,5-trihydroxyphenyl)chroman-8-yl)methyl)-5,7-dihydroxy-2-(3,4,5-trihydroxyphenyl)chroman-3-yl 3,4,5-trihydroxybenzoate]
α-glucosidase; listed as oolong homobisflavan-trimer-4
  α-glucosidase inhibitory activity (in words): particularly strong activities; also recorded: significant inhibitory activity; also recorded: high activity
α-glucosidase
  inhibitory activity relative to the EGCG monomer: 10 times
